In patent US7071206B2, “Agents for treating neurodegenerative disorders” (Medivation, Inc., priority 1995, dated 2006):

Experiments:
[1] = test system: patients suffering from Alzheimer's disease; experiment: Clinical trial of dimebon: blood and urea analysis; assay type: in vivo, human
From the text: By the 8th week of the treatment the amount of leukocytes was normal again.

[2] = test system: patients suffering from Alzheimer's disease; experiment: Clinical trial of dimebon: EEG investigations; assay type: in vivo, human; settings: any patients except one (observation 12: increase of focal Δ-waves, retardation of the rhythm)
From the text: In observations 2, 11 and 14 the weakly positive dynamics of the EEG was manifested in weaker outbursts during hyperventilation and normalization of the zonal differences.

[3] = test system: patients suffering from Alzheimer's disease; experiment: Clinical trial of dimebon tablets, Hazegawa's scale (0 score = poorest result); assay type: in vivo, human
Description: (§1) The test was carried out under the direct supervision by two of the inventors, namely E. E. Bukatina and V. Grigorieva, in 14 patients who agreed to take part in the tests, 13 of whom lived in a boarding house for senile persons and one patient lived with their family.
Alzheimer's disease was diagnosed on the basis of criteria ICD-10 NINCDS ADRDA.
(§2) Dimebon in the form of tablets (comprising 10 mg of dimebon, 30 mg of lactose, 5 mg of magnesium stearate was prescribed for oral administration in a dose of 0.02 g three to times a day. The patients living in the boarding house received dimebon for 58 days. A patient (observation 14) who was under outpatient observation continued taking the agent for a month after the completion of the tests.
Before the treatment with dimebon, and at 4 and 8 weeks after treatment the patients were examined according to Hazegawa's scale and the inventors' scale (“Social and Clinical Psychiatry”, 1992, No.4, pp.29–37) which includes the following indexes: (1) orientation in locality, time, immediate surroundings and one's own personality; (2) orientation in space; (3) memory for the past; (4) memory for the present; (5) “life in the past”; (6) (a) articulation, (b) difficulty in finding words, and distortion of words; (c) naming of objects; (d) following instructions; (7) concentration (of attention); (8) an affective sphere; (a) high spirits, (b) low spirits; (9) delirium; (10) hearing hallucinations; (11) visual hallucinations; (12) senile or senile-like confusion (when motion anxiety is accompanied by the revival of the past experience); (13) irritability; (14) anxiety; (15) asthenia; (16) headaches; (17) dizziness; (18) tearfulness; (19) spontaneous activity; (20) elementary self-service; and (21 control of sphincters.
According to the Hazegawa's scale, the 0 score indicates the poorest result; on the contrary, according to the inventors' scale, the 0 score indicates the absence of a symptom 4 score indicates the greatest manifestation thereof. […] Before the therapy was started, the patients had been independently examined by two doctors who used the inventors' scale. The examination during the treatment was carried out by the doctors using both the scales. The evaluation according to all the inventors' scale points during all the tests and their variations during the treatment with dimebon are given in the Appendix.
Both absolute evaluations of the signs under investigation (the evaluation prior to treatment is a mean evaluation of the two examinations) and variations in them were analysed in the course of therapy. In doing so, only those changes that were beyond the range of evaluations obtained in two pre-treatment examinations were taken into consideration. […]

NMDA receptor = experiment: Anti-NMDA activity: prevention of convulsions and death caused by NMDA injected into the lateral ventricle of the brain; assay type: in vivo; settings: mice; i.p. 40 minutes before NMDA 0.1 μg into the lateral ventricle; probit analysis
Description: The experiment was conducted in white non-inbred male mice of 20–24 g of weight. A solution of the test agent in 0.2 ml of 5% aqueous dimethylsulfoxide was injected intraperitoneally 40 minutes before the injection of NMDA into the lateral vehicle of the brain. For the mice that had been prepared beforehand for the experiment a skin flap on the head of each mouse was removed under ether anestesia and a hole was bored in the skull by a fine drill. NMDA (0.1 μg) in a volume of 1.4 μl was injected with a microsyringe. The microsyringe needle was immersed to a depth of 2.5 mm. After the operation, the wound was treated with a 2% novocaine solution. […] The accuracy of NMDA injection was monitored by injection of methylene blue. Two to 4 hours after the operation, the mice were used for a pharmacological experiment.
The animals inoculated with a saline solution were used as control.
Each dose of the agent was tested in a croup of 6–8 animals. The ED50 value (the dose of the agent preventing the development of convulsions and the death of 50% of the animals) was determined by a probit-analysis method (Litchfild J. T., Wicoxon F. J.—Pharmacol. Exp. Therap., 1949, v. 96, p. 99–114).

[4] = test system: patients suffering from Alzheimer's disease; settings: general statement on the agent used in medicine as antiallergic; cited from earlier work
[5] = test system: patients suffering from Alzheimer's disease; experiment: Clinical trial of dimebon: clinical observations of the mental state; assay type: in vivo, human
Description: as §1, §2
The test results reflected the condition of the patients at the time of the examination. Any changes in the metal state observed in the interval between the tests and disappearing by the moment of examination according to the scale were described in the section “Clinical Observations”.
The pattern of the dynamics of the mental states of the patients during the treatment with dimebon registered in clinical observations is presented in Table 17.

For Cc1ccc2c(c1)c1c(n2CCc2ccc(C)nc2)CCN(C)C1 [No. 10, 2,8-dimethyl-5-[2-(6-methyl-3-pyridyl)ethyl]-2,3,4,5-tetrahydro-1H-pyrido[4,3-b]indole], the amount of leukocytes ([1]; after 4 weeks, within normal limits, p<0.05) was “significant reduction”, the amount of leukocytes ([1]; by the 8th week) was “normal again” and the “hematological and biochemical status” value ([1]; during the course of the treatment) was “No pathologic changes”. The “changes in the EEG during the course of treatment” value [2] was “No changes in the EEG”, the “Evaluation according to Hazegawa's scale, M +/− m” value (“Evaluation according” below) ([3]; mean of 7 patients with nonprofound dementia, after 4 weeks) was 20.79 +/− 1.85 and the “Evaluation according” value ([3]; mean of 7 patients with nonprofound dementia, after 8 weeks) was 23 +/− 1.17. For the same compound, the “Evaluation according” value ([3]; mean of 14 patients, after 4 weeks) was 14.68 +/− 1.87, the “Evaluation according” value ([3]; mean of 14 patients, after 8 weeks) was 15.68 +/− 2.39 and the “ED50 (dose preventing the development of convulsions and the death of 50% of the animals)” value (NMDA receptor) was 42 ± 6 mg/kg. The “toxicity and negative side-effects” value [4] was “non-toxic and does not show any negative side-effects”, the “number of patients who became more active (cheerfulness and freshness)” value ([5]; 14 patients) was 4 patients and the “number of patients who complained of headaches much less frequently” value ([5]; 14 patients) was 4 patients. The “number of patients who slept better” value ([5]; 14 patients) was 2 patients, the “number of patients with a distinct antidepressive effect” value ([5]; 14 patients) was 8 patients and the “number of patients with a greater interest in what was happening around” value ([5]; 14 patients) was 8 patients. The “psychopatic-like and depressive manifestations, conclusion” value ([5]; 14 patients) was “definite positive effect” and the “psychopathic-like symptoms (lack of restraint, touchiness, conflict making, evil-mindedness or aggressiveness)” value ([5]; all 7 patients who suffered from them, during the first 2 weeks of therapy) was “decreased significantly”.
